Experimental data published in PubChem BioAssay AID1918940 (Molecular Pharmacology Branch, DTP, NCI, 2023).

System: NCI-H211 complex spheroid viability
Assay: Anticancer human tumor NCI-H211 cell line growth inhibition [LSD1];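 further: luminescent viability read after seven days of drug exposure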;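 on viability, T/C: 100% = DMSO vehicle control viability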
Details: for IC50: curve of first compound; for viability, T/C: stronger effect = lower value
Source text: Multicellular complex tumor spheroid response to LSD1 Inhibitor Iadademstat in combination with a variety of drugs and investigational agents in selected tumor cell lines
The current study was undertaken to assess response to LSD1 inhibitors in combination with standard-of-care drugs and investigational agents in solid tumor complex spheroid models as well as in the K-562 leukemia. Complex spheroids include a stromal component modeled by human endothelial cells (HUVEC) and fibroblasts modeled by human mesenchymal stem cells (MSCs). The concentration ranges selected for each drug and investigational agent were based upon clinically achievable concentrations if the clinical Cmax of the agent was known.
Compounds. The drugs and investigational agents used in this study are listed on Table 1. All of the agents used, including staurosporine (NSC755774) and gemcitabine (NSC613327), were obtained from the Developmental Therapeutics Program, NCI. FDA-approved anticancer drugs are available from the NCI at http://dtp.nci.nih.gov/branches/dscb/oncology_drugset_explanation.html. Drugs and investigational agents were >95% pure by proton nuclear magnetic resonance (NMR) and liquid chromatography/mass spectrometry (LC/MS). Stock solutions were prepared at 400x in DMSO, stored at -70 degrees C, and diluted in fresh medium prior to their use. The final concentration of DMSO in cell culture wells never exceeded 0.25% (v/v). The FDA-approved anticancer drug set is available from the Developmental Therapeutics Program at https://dtp.cancer.gov/organization/dscb/obtaining/available_plates.htm. All drugs and investigational agents were tested over a range starting from a high concentration at or near the clinical Cmax and decreasing in half-log increments. If the clinical Cmax for an agent had not been determined, the highest concentration tested was 10 microM.
Cell Lines. The patient-derived cancer cell (PDC) lines: 292921-168-R-J2-PDC, K24384-001-R-PDC, and 521955-158-R2-J5-PDC pancreatic carcinomas, 556581-035-R-J1 ovarian carcinoma, 324938-238-R-J1-PDC, 855422-203-R-J1-PDC and 883617-216-R-J1-PDC urothelial bladder carcinomas, 743489-274-T-PDC renal cell carcinoma, 138582-R-J1 Merkel cell tumor, K60290-347-R-J1 and K57222-313-R-J1-PDC glioblastomas, 653999-131-R-J2-PDC, LG0703-F948-PDC, and 349418-098-R-PDC non-small cell lung carcinomas, 885512-296-R-J2-PDC, 171881-019-R-J1-PDC breast carcinomas and 186277-243-T-J2-PDC and 233499-124-R-J2-PDC colon carcinomas were obtained from the NCI Patient-Derived Models Repository (PDMR, https://pdmr.cancer.gov). The established cell lines NCI/ADR-RES (RRID:CVCL_14520 and OVCAR-5 (RRID:CVCL_1628) ovarian carcinomas, 786-O (RRID:CVCL_1051) and A498 (RRID:CVCL_A498) renal cell carcinoma, NCI-H211 (ATCC, cat. CRL-5824; RRID:CVCL_1529), NCI-H196 (ATCC, cat. CRL-5823, RRID:CVCL_1509), SW 1271 (ATCC, cat. CRL-2177, RRID:CVCL_1716) and NCI-H1876 (ATCC, cat. CRL-5902, RRID:CVCL_1503) small cell lung carcinomas, MDA-MB-231 (RRID:CVCL_0062) and MDA-MB-468 (RRID:CVCL_0419)breast carcinomas (10-12). Pooled donor human umbilical vein endothelial cells (HUVEC, Lonza, cat. CC-2519) and human mesenchymal stem cells (hMSC, Lonza, cat. PT-2501) were purchased from Lonza (Walkersville, MD).
Cell Culture. All cells were maintained in an incubator at 37 degrees C and 5% CO2 with 95% humidity. The PDC lines were cultured according to standard operating procedures established by the NCI PDMR (https://pdmr.cancer.gov). Briefly all PDCs were thawed and cultured in Matrigel-coated flasks prepared with a working solution of 1X Ham's F-12 nutrient mix, without supplementation (Invitrogen, Waltham, MA, cat. 11765054), 100 U/mL penicillin-streptomycin (Invitrogen, cat. 15140122), and 2.5% Matrigel (Corning Inc., Corning, NY, cat. 354248) for the first three passages. […]

[1] = second compound 0.1 µM, first compound 0.000949 µM
[2] = second compound 0.1 µM, first compound 0.003 µM
[3] = second compound 0.1 µM, first compound 0.00949 µM
[4] = second compound 0.1 µM, first compound 0.03 µM
[5] = second compound 0.1 µM, first compound 0.0949 µM
[6] = second compound 0.1 µM, first compound 0.3 µM
[7] = second compound 0.316 µM, first compound 0.000949 µM
[8] = second compound 0.316 µM, first compound 0.003 µM
[9] = second compound 0.316 µM, first compound 0.00949 µM
[10] = second compound 0.316 µM, first compound 0.03 µM
[11] = second compound 0.316 µM, first compound 0.0949 µM
[12] = second compound 0.316 µM, first compound 0.3 µM
[13] = second compound 1 µM, first compound 0.000949 µM
[14] = second compound 1 µM, first compound 0.003 µM
[15] = second compound 1 µM, first compound 0.00949 µM
[16] = second compound 1 µM, first compound 0.03 µM
[17] = second compound 1 µM, first compound 0.0949 µM
[18] = second compound 1 µM, first compound 0.3 µM
[19] = second compound 3.16 µM, first compound 0.000949 µM
[20] = second compound 3.16 µM, first compound 0.003 µM
[21] = second compound 3.16 µM, first compound 0.00949 µM
[22] = second compound 3.16 µM, first compound 0.03 µM
[23] = second compound 3.16 µM, first compound 0.0949 µM
[24] = second compound 3.16 µM, first compound 0.3 µM
[25] = second compound 10 µM, first compound 0.000949 µM
[26] = second compound 10 µM, first compound 0.003 µM
[27] = second compound 10 µM, first compound 0.00949 µM
[28] = second compound 10 µM, first compound 0.03 µM
[29] = second compound 10 µM, first compound 0.0949 µM
[30] = second compound 10 µM, first compound 0.3 µM

Compound `CCc1c2c(nc3ccc(O)cc13)-c1cc3c(c(=O)n1C2)COC(=O)[C@]3(O)CC` + NC1CC1c1ccc(-c2cccc(O)c2)cc1 has an IC50 (second compound 0.1 µM) of less than 949 pM, an IC50 (second compound 0.316 µM) of less than 949 pM and an IC50 (second compound 1 µM) of less than 949 pM. For the same compound, the IC50 (second compound 3.16 µM) was less than 949 pM, the IC50 (second compound 10 µM) was less than 949 pM and the viability, T/C [1] was 3.24%. The viability, T/C [2] was 1.7%, the viability, T/C [3] was 2.13% and the viability, T/C [4] was 0.66%. For the same compound, the viability, T/C [5] was 0.05%, the viability, T/C [6] was 0.14% and the viability, T/C [7] was 3.2%. For the same compound, the viability, T/C [8] was 1.12%, the viability, T/C [9] was 1.18% and the viability, T/C [10] was 1.44%. The viability, T/C [11] was 0.05%, the viability, T/C [12] was 0.15% and the viability, T/C [13] was 3.18%. For the same compound, the viability, T/C [14] was 1.68%, the viability, T/C [15] was 1.11% and the viability, T/C [16] was 0.97%. It also gave a viability, T/C [17] of 0.04%, a viability, T/C [18] of 0.16% and a viability, T/C [19] of 2.71%. It also gave a viability, T/C [20] of 1.57%, a viability, T/C [21] of 1.28% and a viability, T/C [22] of 0.83%. For the same compound, the viability, T/C [23] was 0.05%, the viability, T/C [24] was 0.2% and the viability, T/C [25] was 2.86%. It also gave a viability, T/C [26] of 1.99%, a viability, T/C [27] of 1.75% and a viability, T/C [28] of 1.25%. The viability, T/C [29] was 0.17% and the viability, T/C [30] was 0.2%.

`Nc1ccn(C2OC(CO)C(O)C2(F)F)c(=O)n1` (stereo not given) + NC1CC1c1ccc(-c2cccc(O)c2)cc1 showed an IC50 (second compound 0.1 µM) of less than 949 pM, an IC50 (second compound 0.316 µM) of less than 949 pM and an IC50 (second compound 1 µM) of less than 949 pM. For the same compound, the IC50 (second compound 3.16 µM) was less than 949 pM, the IC50 (second compound 10 µM) was less than 949 pM and the viability, T/C [1] was 4.79%. The viability, T/C [2] was 3.12%, the viability, T/C [3] was 3.86% and the viability, T/C [4] was 4.15%. The viability, T/C [5] was 4.2%, the viability, T/C [6] was 3.74% and the viability, T/C [7] was 3.95%. It also gave a viability, T/C [8] of 4.1%, a viability, T/C [9] of 4.15% and a viability, T/C [10] of 3.65%. For the same compound, the viability, T/C [11] was 3.64%, the viability, T/C [12] was 3.81% and the viability, T/C [13] was 3.83%. It also gave a viability, T/C [14] of 4.15%, a viability, T/C [15] of 4.41% and a viability, T/C [16] of 3.58%. For the same compound, the viability, T/C [17] was 3.35%, the viability, T/C [18] was 4.53% and the viability, T/C [19] was 5.21%. For the same compound, the viability, T/C [20] was 4.54%, the viability, T/C [21] was 4.13% and the viability, T/C [22] was 4.09%. It also gave a viability, T/C [23] of 3.28%, a viability, T/C [24] of 4.65% and a viability, T/C [25] of 4.67%. The viability, T/C [26] was 4.95%, the viability, T/C [27] was 4.53% and the viability, T/C [28] was 5.27%. The viability, T/C [29] was 3.89% and the viability, T/C [30] was 4.22%.
